# Test results as given in US7183265B2, “Powdery product comprising crystalline β-maltose monohydrate, its preparation, and uses” (priority 2001, dated 2007).
# Experiments:
# Assay type in all cases: physicochemical
# [1] = Hygroscopicity test; conditions: 25° C., RH 75.2%
# Description: (§1) An open aluminum cup containing a sample was placed in a desiccator, set at a RH of 75.2% (equilibrated with a saturated sodium chloride aqueous solution), kept at 25° C. for three days, and then weighted. Hygroscopicity was expressed with percentage (%) of the increased weight to the initial weight of the sample.
# [2] = Crystallinity by powdery X-ray diffraction (method of Ruland)
# Description: Crystallinity of powder was measured by the method of Ruland (Acta Crystallographica, Vol. 14, p. 1180, 1961) based on a powdery X-ray diffraction pattern using “[…]”, an X-ray diffractometer (Cu, Kα-ray) commercialized by Rigaku Corp., Tokyo, Japan.
# [3] = Solidification test
# Source text: A sample in the aluminum cup, taken out after keeping three days in the above hygroscopicity test, was macroscopically observed. Solidification was judged from the appearance of the sample whether it was solidified or not by adsorbing moisture.
# [4] = Preservation stability of the powder
# Description: as §1, with “sample. A sample in the aluminum cup, taken out after keeping three days in the above hygroscopicity test, was macroscopically observed. Solidification was judged from the appearance of the sample whether it was solidified or not by adsorbing moisture.” for “sample.”
Compound,hygroscopicity (in words) [1],Crystallinity (%) [2] [%],solidification (in words) [3],preservation stability (in words) [4]
"OCC1OC(OC2C(CO)OC(O)C(O)C2O)C(O)C(O)C1O (stereo not drawn) [No. 9, hydrous crystalline β-maltose, reference compound]",no hygroscopicity,82.6,no substantial solidification,
"OC[C@H]1O[C@H](O[C@H]2[C@H](O)[C@@H](O)[C@H](O)O[C@@H]2CO)[C@H](O)[C@@H](O)[C@@H]1O [No. 10, anhydrous crystalline α-maltose]",high hygroscopicity,76.3,heavy solidification,unsatisfactory preservation stability
